Results published in article PMC9896555, “Cyclic Acetals as Novel Long-Lasting Mosquito Repellents” (Journal of Agricultural and Food Chemistry, 2023).
Where two headings read alike, the source gives them in different places.

How the values were obtained:
Aedes albopictus [1] = test: Protection time at 0.17 mg/cm2, human-bait technique; type: in vivo; settings: for Average PT >95% (% coefficient of variation) / Estimated 100% PT (complete protection time, mean±SE): at the dose of 0.17mg/cm2; for Estimated 100% PT (complete protection time, mean±SE): Kaplan–Meier estimate; for Protection time (95% protection): dose of 0.17 mg/cm^2, tests ended after 8 h; for repellent activity, in words: against A. albopictus; for pest or weed control at 0.17 mg/cm2, 0.17 mg/cm2: Aedes albopictus, topical, read-out: Protection time PE%
Method: To evaluate the protection time of derivatives, the PE % was measured with 100 μL of a 5% ethanol solution, corresponding to 0.17 mg/cm^2 of exposed skin, under the same laboratory conditions. Mosquito-exposed skin was treated with 100 μL of ethanol, as the negative hand control. For each volunteer (up to 8), the test was performed every hour, up to 8 h from the application. The protection time of DEET and Icaridin was measured under the same conditions. Since these trials were run in parallel with those aimed to profile the cytotoxicity of the compounds (paragraph 2.6), we interrupted the experiments for those compounds showing to have higher cytotoxicity than Icaridin and DEET as soon as the results were available. For this reason, the number of volunteers differs among the compounds.
The average time until protection which was higher than 95% protection time was considered for each compound. Moreover, for the compounds tested on at least three volunteers, the complete (100%) protection time was also estimated (SPSS 28.01.0) using the Kaplan–Meier survivor function procedure.[22]

Aedes albopictus [2] = test: Effective dose / protection efficacy, human-bait technique; type: in vivo; settings: for Protection efficacy (dose to obtain complete protection (100%) from bite attempts): applied on skin of volunteers, 3 min exposure
Method: The repellence of DEET, Icaridin (both supplied by Istituto Biochimico VEBI s.r.l.), acetals, and the synthesized hydroxyacetals was evaluated againstAedes albopictususing the human-bait technique (to simulate the condition of human skin on which repellents will be applied).[22]A. albopictuswas reared and tested at 26 ± 2 °C, ≥60 ± 10% relative humidity (RH), and at 14:10 h light/dark photoperiod, within Plexiglas cylindrical laboratory cages (35 cm diameter, 60 cm length) with one end closed by a net. During the tests, cages contained ≈150 nulliparous, 4–7 day-old, nonblood-fed females. For each compound to be tested, up to six volunteers participated in the trial.
The study was approved by the Regional Ethics Committee for Clinical Trials of Tuscany Region with the registered number 20383. Volunteers agreed to take part in the experiments following informed consent; only volunteers non-allergic to mosquito bites participated in the trials. On the day of the bioassay, they had no contact with lotions, perfumes, oils, or perfumed soaps. They wore latex surgical gloves, in which a dorsal square area of 30 cm^2 was cut open. Mosquito-exposed skin was treated with 50 μL of ethanol, as the negative hand control. The other hand was treated with 50 μL of the tested compounds in ethanol solution (dosages corresponding to 0.081, 0.17, 0.33, 0.5, 0.83, 1.7, 8.3, 16.7, and 83.3 μg/cm^2). Both hands were presented in the same test cage. The number of probing mosquitoes in a 3 min exposure period was recorded. During each test, the control and the treated hand were presented interchanged to verify the mosquitoes’ readiness to bite. Trials were considered valid only if at least 30 mosquitoes performed probing behavior on the control hand before each repellent dosage was tested. The protection efficacy (PE %) obtained from all replicates was calculated, according to the WHO guidelines[31] using this formula [drawing 1]
To evaluate the protection efficacy, volunteers applied increasing doses of the compounds to the skin on the back of their hands (30 cm^2, while the rest was covered with a rubber glove) and counted the number of mosquitoes attempting to bite; the solvent only was used on the control hand. The protection (percentage of repelled mosquitoes) was calculated as reported in the Material and Methods section.

SMILES | Protection time PE% (Aedes albopictus [1]; 0.17mg/cm2, 0 min) [%] | Protection time PE% (Aedes albopictus [1]; 0.17mg/cm2, 1 h) [%] | Protection time PE% (Aedes albopictus [1]; 0.17mg/cm2, 2 h) [%] | Protection time PE% (Aedes albopictus [1]; 0.17mg/cm2, 3 h) [%] | Protection time PE% (Aedes albopictus [1]; 0.17mg/cm2, 4 h) [%] | Protection time PE% (Aedes albopictus [1]; 0.17mg/cm2, 5 h) [%] | Protection time PE% (Aedes albopictus [1]; 0.17mg/cm2, 6 h) [%] | Protection time PE% (Aedes albopictus [1]; 0.17mg/cm2, 7 h) [%] | Protection time PE% (Aedes albopictus [1]; 0.17mg/cm2, 8 h) [%] | Average PT >95% (% coefficient of variation) (Aedes albopictus [1]) | Estimated 100% PT (complete protection time, mean±SE) (Aedes albopictus [1]) [min] | further results
CC(C)=CCCC1(C)OCC(CO)O1 (mixture of isomers) [8a] | 100 | 100 | 100 | 100 | 100 | 99.39 | 100 | 97.44 | 84.95 | – | – | –
CCCCCCCC1OCC(CO)O1 (mixture of isomers) [9a] | 100 | 99.77 | 99.42 | 100 | 100 | 99.61 | 95.75 | 95.88 | 94.12 | 420 (4.5) min | 307 ± 53 | Protection efficacy PE% (Aedes albopictus [2]; 0.081 µg/cm2): 0%; Protection efficacy PE% (Aedes albopictus [2]; 0.17 µg/cm2): 33.33%; Protection efficacy PE% (Aedes albopictus [2]; 0.33 µg/cm2): 72.85%; Protection efficacy PE% (Aedes albopictus [2]; 0.5 µg/cm2): 74.69%; Protection efficacy PE% (Aedes albopictus [2]; 0.83 µg/cm2): 82.72%; Protection efficacy PE% (Aedes albopictus [2]; 1.7 µg/cm2): 90.12%; Protection efficacy PE% (Aedes albopictus [2]; 8.3 µg/cm2): 100%; Protection efficacy PE% (Aedes albopictus [2]; 16.7 µg/cm2): 100%; Protection efficacy PE% (Aedes albopictus [2]; 83.3 µg/cm2): 100%; 100% PE (Aedes albopictus [2]; Table S1): 8.3 µg/cm2; Protection efficacy (dose to obtain complete protection (100%) from bite attempts) (Aedes albopictus [2]): 8.3 μg/cm^2; Protection time (95% protection) (Aedes albopictus [1]): 7 h
CCCCCCCC1OCC(C)(CO)CO1 (mixture of isomers) [9b] | 97.02 | 98.5 | – | 98.35 | 100 | 97.67 | 93.8 | 96.63 | 91.73 | 420 (5.6) min | 120 ± 105 | –
CCCCC(CC)C1OCC(CO)O1 (mixture of isomers) [10a] | 100 | 100 | 100 | 100 | 100 | 97.5 | 100 | 63.17 | – | 360 (56.8) min | – | –
CCCCCC1(CC)OCC(CO)O1 (mixture of isomers) [11a] | 100 | 100 | 100 | 100 | 98.12 | 93.19 | 72.96 | – | – | 240 (3.8) min | 345 ± 66 | –
CCCCCCCCC1OCC(CO)O1 (mixture of isomers) [13a] | 99.47 | 100 | 100 | 99.41 | 100 | 97.22 | 99.06 | 96.82 | 82.75 | 420 (4.7) min | 270 ± 77 | –
CCCCCCCCCC1OCC(CO)O1 (mixture of isomers) [18a] | 100 | 97.63 | 100 | 98.31 | 99.28 | 99.23 | 97.68 | 92.86 | 95.18 | 420 (2.1) min | 190 ± 50 | Protection efficacy PE% (Aedes albopictus [2]; 0.081 µg/cm2): 22.98%; Protection efficacy PE% (Aedes albopictus [2]; 0.17 µg/cm2): 41.74%; Protection efficacy PE% (Aedes albopictus [2]; 0.33 µg/cm2): 40.93%; Protection efficacy PE% (Aedes albopictus [2]; 0.5 µg/cm2): 77.98%; Protection efficacy PE% (Aedes albopictus [2]; 0.83 µg/cm2): 69.25%; Protection efficacy PE% (Aedes albopictus [2]; 1.7 µg/cm2): 87.67%; Protection efficacy PE% (Aedes albopictus [2]; 8.3 µg/cm2): 95.83%; Protection efficacy PE% (Aedes albopictus [2]; 16.7 µg/cm2): 100%; Protection efficacy PE% (Aedes albopictus [2]; 83.3 µg/cm2): 100%; Protection efficacy (dose to obtain complete protection (100%) from bite attempts) (Aedes albopictus [2]): 16.7 μg/cm^2
CC(C)(C)C1CCC2(CC1)OCC(CO)O2 (mixture of isomers) [19a] | – | – | – | – | – | – | – | – | – | 0 min | – | –
CC1(CCc2ccccc2)OCC(CO)O1 (mixture of isomers) [20a] | – | – | – | – | – | – | – | – | – | 0 min | – | –
CC(C)c1ccc(C2OCC(CO)O2)cc1 (mixture of isomers) [21a] | – | – | – | – | – | – | – | – | – | 0 min | – | –
CCCCCCCCCCCC1OCC(CO)O1 (mixture of isomers) [24a] | – | – | – | – | – | – | – | – | – | 0 min | – | –
CC(C)CC1(CC(C)C)OCC(CO)O1 (racemic) [17a] | 100 | 100 | 100 | 100 | 98 | 98.39 | 92.05 | 74.4 | 43.92 | 300 (2.3) min | – | –
OCC1COC2(CCCCCCCCCCC2)O1 (racemic) [25a] | – | – | – | – | – | – | – | – | – | 0 min | – | –
CC1(CO)COC(C)(C)OC1 [5b] | – | – | – | – | – | – | – | – | – | 0 min | – | repellent activity, in words (Aedes albopictus [1]): lack of activity
CCCC1(CCC)OCC(C)(CO)CO1 [7b] | 100 | 99.45 | 100 | 99.21 | 98.74 | 98.42 | 84.33 | – | – | 300 (1.4) min | 220 ± 87 | –
CCCC1(CCC)OCC(CC)(CO)CO1 [7c] | 99.35 | 94.12 | 97.7 | 98.08 | 99.4 | 91.72 | 97.22 | 94.29 | 94.44 | 360 (3.3) min | 60 ± 34 | –
CC1(CO)COC2(CCCCCCC2)OC1 [12b] | – | – | – | – | – | – | – | – | – | 420 (3.1) min | 240 ± 60 | pest or weed control at 0.17 mg/cm2, 0.17 mg/cm2 (Aedes albopictus [1]; 0.17mg/cm2, 1 h): 100%; pest or weed control at 0.17 mg/cm2, 0.17 mg/cm2 (Aedes albopictus [1]; 0.17mg/cm2, 2 h): 99.5%; pest or weed control at 0.17 mg/cm2, 0.17 mg/cm2 (Aedes albopictus [1]; 0.17mg/cm2, 3 h): 98.7%; pest or weed control at 0.17 mg/cm2, 0.17 mg/cm2 (Aedes albopictus [1]; 0.17mg/cm2, 4 h): 97.8%; pest or weed control at 0.17 mg/cm2, 0.17 mg/cm2 (Aedes albopictus [1]; 0.17mg/cm2, 5 h): 97.2%; pest or weed control at 0.17 mg/cm2, 0.17 mg/cm2 (Aedes albopictus [1]; 0.17mg/cm2, 6 h): 93.8%; pest or weed control at 0.17 mg/cm2, 0.17 mg/cm2 (Aedes albopictus [1]; 0.17mg/cm2, 7 h): 98.2%; pest or weed control at 0.17 mg/cm2, 0.17 mg/cm2 (Aedes albopictus [1]; 0.17mg/cm2, 8 h): 94.9%; Protection time (95% protection) (Aedes albopictus [1]): 7 h
CCC1(CO)COC(CC(C)C)(CC(C)C)OC1 [17c] | 98.72 | 97.92 | 98.68 | 100 | 98.44 | 98.08 | 98.53 | 100 | 100 | 480 (0) min | – | Protection time (95% protection) (Aedes albopictus [1]): 8 h
CCCCCCCCCC1OCC(O)CO1 (stereo not drawn) [trans-18a.6] | – | – | – | – | – | – | – | – | – | – | – | repellent activity, in words (Aedes albopictus [1]): inactive as a repellent
